The values below come from ChEMBL document CHEMBL1127759, “Synthesis and in vitro cytotoxicity of 6-vinyluridine and related compounds” (Bioorg Med Chem Lett, 1994).

The structures appear in SMILES notation.

For the assay, the system named is L1210. The assay is described as follows: In vitro growth inhibitory activity against mouse L1210 leukemia cells. The format is functional, cell-based.
As for `CCOC(=O)/C(Br)=C\c1cc(O)nc(O)n1`, the IC50 (as a rule, the point on the concentration scale where inhibition reaches its midpoint) turned out to be 1 µM.

For the compound `C/C=C/c1cc(O)nc(O)n1`, the IC50 is > 90 µM.

`C=Cc1nc(O)nc(O)c1Br` registered an IC50 of 11 µM.

Take `C/C=C\c1cc(O)nc(O)n1`: the IC50 came out at 46 µM.

As to `CCOC(=O)/C(Cl)=C\c1cc(O)nc(O)n1`, the IC50 amounted to 3 µM.

In turn, `C=Cc1cc(O)nc(O)n1` yielded an IC50 of 3 µM.

With `C=Cc1nc(O)nc(O)c1Cl`, the IC50 is 4.5 µM.

Compound `C=Cc1nc(O)nc(O)c1I` showed an IC50 of 2 µM.

`CCOC(=O)/C=C/c1cc(O)nc(O)n1` displayed an IC50 of 38 µM.

Turning to `COC(=O)/C(Br)=C\c1cc(=O)[nH]c(=O)n1C1O[C@H](CO)[C@@H](O)[C@H]1O` (some centres undefined), the IC50 was > 25 µM.

In the case of `CCOC(=O)/C(C)=C/c1cc(=O)[nH]c(=O)n1C1O[C@H](CO)[C@@H](O)[C@H]1O` (some centres undefined), the IC50 was > 30 µM.

Regarding `CCOC(=O)/C=C/c1cc(=O)[nH]c(=O)n1C1O[C@H](CO)[C@@H](O)[C@H]1O` (some centres undefined), the IC50 was > 35 µM.

For the compound `C/C=C/c1cc(=O)[nH]c(=O)n1C1O[C@H](CO)[C@@H](O)[C@H]1O` (some centres undefined), the IC50 was > 35 µM.

Turning to `C=Cc1cc(=O)[nH]c(=O)n1C1O[C@H](CO)[C@@H](O)[C@H]1O` (some centres undefined), the concentration for half-maximal inhibition (IC50) was 12 µM.
